Measurements from patent publication US8778946B2, “3-substituted-6-(pyridinylmethoxy)-pyrrolopyridine compounds” (Eli Lilly and Company, priority 2010, dated 2014).
pIC50: −log10 of the molar value. “And” between values parts separate entries of the source, which are not always exact repeats. Equal entries are not always repeated. Marks after values point to notes of the source that are not given here.

What was measured:
[1] = tested on: male Fischer F-344 Sasco rats; experiment: Attenuation of stress-induced hyperthermia in rats; type: in vivo; settings: oral, 60-min pretreatment
Procedure: Stress-induced hyperthermia is attenuated by clinical anxiolytics and is widely used preclinically to predict anxiolytic efficacy of compounds.
In separate studies, male Fischer F-344 Sasco rats are dosed orally with 0.3, 1, 3, or 10 mg/kg of test compound in a vehicle consisting of 1% carboxymethylcellulose, 0.25% polysorbate 80, 0.05% antifoam (dose volume=1 ml/kg). The mGluR5 receptor antagonist MTEP (3-[(2-methyl-1,3-thiazol-4-yl)ethynyl]pyridine) (10 mg/kg, PO) is used as a quality control. Following a 60-min pretreatment period, core baseline body temperature is measured (T1, in degrees C.) and then ten minutes later a second body temperature measurement is recorded (T2). The change in body temperature (T2 minus T1) is defined as the stress-induced hyperthermic response. The efficacious dose is the dose at which a compound produces a 35% reduction in stress-induced hyperthermia, relative to the vehicle response, and is defined as the T35 dose.

[2] = tested on: C57/black 6J male mice; experiment: Basal (habituated) locomotor activity; type: in vivo
Procedure: (§1) Anti-Parkinson effects of compounds of the invention can be determined using procedures well known in the art such as animal models of locomotor activity. For example, compounds of the invention show effects on basal (habituated) locomotor activity and on reserpine-induced akinesia in C57/black 6J male mice.
Locomotor activity is measured using an automated system to track movement in mice. Mice are placed in chambers and allowed to habituate to the chambers for 30 mins. During this time they show reduced locomotion over time. Following administration of a compound of the invention, animal movement is restored to pre-habituation levels.
More specifically, locomotor activity boxes [40×40×40 cm clear arenas] are situated in groups of 4 placed on infrared tables and testing is performed in the dark. Locomotor activity is recorded and measured using infrared video tracking. Locomotor activity is recorded between time of 8:30 and 17:00 hours. In some instances locomotor activity is measured using open fields which use infrared beam breaks as a measure of movement.
(§2) Mice are randomly assigned to treatment groups. Each mouse is placed individually into one of the locomotor activity boxes. Distance moved (cm) is recorded per 5 minutes for each mouse. Exploratory behavior is assessed for the following 30 minutes. After 30 minutes recording stops and mice are dosed p.o. with the test compound or vehicle in a volume of 10 ml/kg. Once all mice have been dosed, locomotor activity recording is started for a further 120 minutes to assess the effect of treatment on habituated locomotor activity. Data is transferred from the software/computers to spreadsheets for further analysis. Statistical analysis is carried out using Statistica 8.0. One way ANOVA on TOTAL distance moved, with Treatment group as the between factor, is calculated. If a significant Treatment effect (p≦0.05) is observed then post-hoc analysis is performed, either Fishers' LSD or Dunnetts' test.

[3] = tested on: C57/black 6J male mice; experiment: Reversal of reserpine-induced akinesia; type: in vivo
Procedure: as §1
Reserpine is a catecholamine depleting agent (depletes dopamine and noradrenaline) and 18-24 hours after treatment mice become akinetic and have reduced locomotor activity counts. Reserpine-induced akinesia is assessed by measuring the effect of compounds on locomotor activity approximately 18-24 hours after a single dose of 1 mg/kg reserpine i.p. The equipment used is the same as that used for basal locomotor activity (above).
as §2, with “Basal and reserpine-induced exploratory” for “Exploratory”, “compound” for “compound or vehicle”, “dosed” for “dosed,”, “akinesia.” for “habituated locomotor activity.”

[4] = molecular target: T1, human mGluR5 (Homo sapiens, UniProt P41594); experiment: Human mGluR5 in vitro functional assay (FLIPR calcium, antagonism of glutamate EC90 response); type: cell-based; settings: AV-12 cells expressing recombinant human mGlu5a, relative IC50
T1 construct: expressed in transfected cells; host or cells: AV-12 cells containing the rat EAAT1 glutamate transporter
Text: (§3) The activation of G-protein coupled receptors (GPCRs) that are coupled to Gq proteins results in a change in intracellular calcium concentration. This functional response can be measured in a kinetic assay using calcium-sensitive dyes and a fluorescent imaging plate reader using a standard technique known as FLIPR (MDS Analytical Technologies, Sunnyvale, Calif.).
(§4) Stable cell line preparation and assay techniques are adapted from Kingston, A. E., et. al. (1995) Neuropharmacology 34: 887-894. […]
(§5) For the functional assays, cells are seeded in growth medium lacking selection antibiotics at a density of 65K per well into 96-well, black/clear bottom, poly-D-lysine coated microplates and incubated for 18-20 hours prior to the experiment. […] The antagonist effects of compounds are quantified in the FLIPR instrument in 10-point dose curves by comparing the peak fluorescent responses to the agonist glutamate in the presence and absence of compound. Specifically, the compound effect is measured as maximal minus minimal peak heights in relative fluorescent units corrected for basal fluorescence as measured in the absence of glutamate. All data are calculated as relative IC50 values using a four-parameter logistic curve fitting program (Activity Base® v5.3.1.22).

[5] = tested on: Male, NIH-Swiss mice; experiment: Mouse forced-swim; type: in vivo
Procedure: Male, NIH-Swiss mice (20-25 g, Harlan Sprague-Dawley, Indianapolis, Ind.) are used in a method modified from that of Porsolt R D, Le Pichon M, Jalfre M Depression: a new animal model sensitive to antidepressant treatments. Nature. 1977 Apr. 21; 266(5604):730-2. Mice are placed in clear plastic cylinders (diameter 10 cm; height: 25 cm) filled to 6 cm with 22-25° C. water for six min. The duration of immobility is recorded during the last 4 min of a six-minute trial. A mouse is regarded as immobile when floating motionless or making only those movements necessary to keep its head above the water. Data are analyzed by post-hoc Dunnett's test with alpha level set at 0.05. The amount of time spent immobile is measured. Means+S.E.M. are subjected to ANOVA followed by Dunnett's test with p<0.05 set as the error rate for statistical significance. ED60 values are extrapolated from the linear portion of the dose-effect curve and represent the dose predicted to decrease basal immobility (100% at 0 mg/kg compound) by 60%. The maximal decrease in immobility time is calculated using the largest decrease in immobility produced at any dose of a compound with this formula: (100-immobility with compound/immobility under vehicle control) %.

[6] = molecular target: T2, human mGluR1 (Homo sapiens, UniProt Q13255); experiment: Human mGluR1 in vitro functional assay (FLIPR calcium, antagonism of glutamate EC90 response); type: cell-based; settings: AV-12 cells expressing recombinant human mGlu1α, relative IC50
T2 construct: expressed in transfected cells; host or cells: AV-12 cells containing the rat EAAT1 glutamate transporter
Text: as §3, §4, §5

[7] = reserpine 1 mg/kg i.p. + 3 mg/kg p.o. test compound
[8] = reserpine 1 mg/kg i.p. + 10 mg/kg p.o. test compound

T2 sequence (Q13255 19-1194): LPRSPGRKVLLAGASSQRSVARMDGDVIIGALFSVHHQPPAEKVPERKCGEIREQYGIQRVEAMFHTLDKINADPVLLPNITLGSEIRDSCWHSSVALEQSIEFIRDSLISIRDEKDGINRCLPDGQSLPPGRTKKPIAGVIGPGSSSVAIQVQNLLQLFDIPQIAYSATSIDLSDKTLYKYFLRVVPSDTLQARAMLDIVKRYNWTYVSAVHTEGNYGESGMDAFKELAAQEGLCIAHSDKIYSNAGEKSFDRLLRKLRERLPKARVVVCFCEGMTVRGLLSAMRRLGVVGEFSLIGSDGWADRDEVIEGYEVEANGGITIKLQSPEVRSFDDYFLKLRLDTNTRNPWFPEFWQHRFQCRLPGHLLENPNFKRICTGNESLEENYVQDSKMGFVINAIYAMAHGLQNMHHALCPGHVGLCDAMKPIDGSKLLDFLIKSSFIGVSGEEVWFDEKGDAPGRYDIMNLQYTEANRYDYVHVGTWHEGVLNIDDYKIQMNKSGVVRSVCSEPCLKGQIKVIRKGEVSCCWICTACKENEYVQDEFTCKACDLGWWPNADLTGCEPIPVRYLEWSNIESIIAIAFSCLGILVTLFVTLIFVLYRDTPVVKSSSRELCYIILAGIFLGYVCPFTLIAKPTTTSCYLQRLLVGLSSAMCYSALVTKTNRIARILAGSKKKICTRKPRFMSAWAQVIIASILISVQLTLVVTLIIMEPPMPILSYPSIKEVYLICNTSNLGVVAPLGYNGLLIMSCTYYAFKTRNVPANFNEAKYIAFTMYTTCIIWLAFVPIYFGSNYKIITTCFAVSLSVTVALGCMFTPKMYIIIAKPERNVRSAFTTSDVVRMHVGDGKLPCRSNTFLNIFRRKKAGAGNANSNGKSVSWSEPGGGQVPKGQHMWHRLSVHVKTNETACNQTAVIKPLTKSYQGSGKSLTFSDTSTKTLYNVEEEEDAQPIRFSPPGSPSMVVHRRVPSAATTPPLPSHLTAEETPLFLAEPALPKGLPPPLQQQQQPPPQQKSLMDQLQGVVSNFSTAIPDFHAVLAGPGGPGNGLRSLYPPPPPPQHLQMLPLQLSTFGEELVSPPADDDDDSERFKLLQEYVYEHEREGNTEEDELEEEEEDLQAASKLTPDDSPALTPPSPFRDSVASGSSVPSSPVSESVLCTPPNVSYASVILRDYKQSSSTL
T1 sequence (P41594 21-1180 isoform P41594-2 limits assumed): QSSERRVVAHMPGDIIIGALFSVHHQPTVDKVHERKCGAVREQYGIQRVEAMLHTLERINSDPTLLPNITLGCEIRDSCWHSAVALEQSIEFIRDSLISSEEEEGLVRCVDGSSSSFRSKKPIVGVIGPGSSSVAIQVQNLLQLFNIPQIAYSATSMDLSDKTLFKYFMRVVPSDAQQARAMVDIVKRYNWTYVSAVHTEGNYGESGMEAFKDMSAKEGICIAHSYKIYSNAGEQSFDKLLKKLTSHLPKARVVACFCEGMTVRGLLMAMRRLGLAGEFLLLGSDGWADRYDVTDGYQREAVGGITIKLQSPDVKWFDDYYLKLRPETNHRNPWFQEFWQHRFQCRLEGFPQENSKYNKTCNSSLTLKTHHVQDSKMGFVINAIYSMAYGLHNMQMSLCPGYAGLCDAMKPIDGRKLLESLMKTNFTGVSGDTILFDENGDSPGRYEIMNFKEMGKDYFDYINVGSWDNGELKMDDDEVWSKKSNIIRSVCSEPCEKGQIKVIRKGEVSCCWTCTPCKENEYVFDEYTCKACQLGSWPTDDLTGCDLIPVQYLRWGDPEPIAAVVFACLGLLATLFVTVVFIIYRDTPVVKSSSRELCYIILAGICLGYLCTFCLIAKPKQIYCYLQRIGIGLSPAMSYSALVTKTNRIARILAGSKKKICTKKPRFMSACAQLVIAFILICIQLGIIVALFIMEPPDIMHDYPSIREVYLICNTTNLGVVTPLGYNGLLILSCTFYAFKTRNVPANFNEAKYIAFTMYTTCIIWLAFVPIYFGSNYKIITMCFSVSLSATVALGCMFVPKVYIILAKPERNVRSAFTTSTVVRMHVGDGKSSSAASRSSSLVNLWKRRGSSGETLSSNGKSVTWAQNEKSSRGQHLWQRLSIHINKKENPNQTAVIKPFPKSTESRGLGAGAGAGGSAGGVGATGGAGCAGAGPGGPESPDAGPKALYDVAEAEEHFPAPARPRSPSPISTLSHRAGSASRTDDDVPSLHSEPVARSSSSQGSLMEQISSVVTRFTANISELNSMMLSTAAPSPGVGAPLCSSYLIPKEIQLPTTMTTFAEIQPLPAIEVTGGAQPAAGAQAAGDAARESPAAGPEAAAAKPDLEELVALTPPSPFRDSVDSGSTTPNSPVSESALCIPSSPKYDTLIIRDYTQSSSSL

Row | Structure (SMILES) | Basal Locomotor Activity (mean distance moved (cm) in 120 min) ([2]; 3 mg/kg p.o.) | Basal Locomotor Activity (mean distance moved (cm) in 120 min) ([2]; 10 mg/kg p.o.) | Reversal of Reserpine-Induced Akinesia (mean distance moved (cm) in 120 min) [3, 7] | Reversal of Reserpine-Induced Akinesia (mean distance moved (cm) in 120 min) [3, 8] | also measured
1 | CCCOC(=O)N1CCN(c2cn(C)c3nc(OCc4ccccn4)ccc23)C(=O)C1 [Example 3, Propyl 4-[1-methyl-6-(pyridin-2-ylmethoxy)-1H-pyrrolo[2,3-b]pyridin-3-yl]-3-oxopiperazine-1-carboxylate] | 28458.8 *** cm | 39857.5 *** cm | – | – | T35 dose (dose producing a 35% reduction in stress-induced hyperthermia relative to vehicle) [1]: 0.93 mg/kg
2 | CCOC(=O)N1CCN(c2cn(C)c3nc(OCc4ccccn4)c(Cl)cc23)C(=O)C1 [Example 27, Ethyl 4-[5-chloro-1-methyl-6-(pyridin-2-ylmethoxy)-1H-pyrrolo[2,3-b]pyridin-3-yl]-3-oxopiperazine-1-carboxylate] | 35290.1 *** cm | 36889.1 *** cm | 27053.7 ***+++ cm | 23432.5 **+++ cm | –
3 | CC(C)OC(=O)N1CCN(c2cn(C)c3nc(OCc4ccccn4)ccc23)C(=O)C1 [Example 4, 1-Methylethyl 4-[1-methyl-6-(pyridin-2-ylmethoxy)-1H-pyrrolo[2,3-b]pyridin-3-yl]-3-oxopiperazine-1-carboxylate] | 30715.2 ** cm | 39935.6 *** cm | 16474.1 + cm | 23394.4± **+++ cm | –
4 | CCOC(=O)N1CCN(c2cn(C)c3nc(OCc4ccccn4)ccc23)C(=O)C1 [Example 1, ethyl 4-[1-methyl-6-(pyridin-2-ylmethoxy)-1H-pyrrolo[2,3-b]pyridin-3-yl]-3-oxopiperazine-1-carboxylate] | 15980 *** cm | 25109 *** cm | 23611 ***+++ cm | – | pIC50 [4]: 6.74; ED60 dose, reduction in forced swim immobility ([5]; extrapolated from linear portion of dose-effect curve): 8.6 mg/kg; maximal decrease in immobility ([5]; largest decrease at any dose relative to vehicle control): 50.6%; T35 dose (dose producing a 35% reduction in stress-induced hyperthermia relative to vehicle) [1]: 0.55 mg/kg; Reversal of Reserpine-Induced Akinesia (mean distance moved (cm) in 120 min) ([3]; reserpine 1 mg/kg i.p. + 1 mg/kg p.o. test compound): 15392 ++ cm; Reversal of Reserpine-Induced Akinesia (mean distance moved (cm) in 120 min) ([3]; reserpine 1 mg/kg i.p. + 30 mg/kg p.o. test compound): 32607 ***+++ cm; pIC50 [6]: < 4.90; melting point: 143.42 °C; Basal Locomotor Activity (mean distance moved (cm) in 120 min) ([2]; 1 mg/kg p.o.): 12147 ** cm
5 | CCOC(=O)N1CCN(c2cn(C)c3nc(OCc4ccccn4)c(C)cc23)C(=O)C1 [Example 28, Ethyl 4-[1,5-dimethyl-6-(pyridin-2-ylmethoxy)-1H-pyrrolo[2,3-b]pyridin-3-yl]-3-oxopiperazine-1-carboxylate] | 25074.1 ** cm | 32866.2 *** cm | 7848.9 cm | 14087.6 **+++ cm | –
6 | CCn1cc(N2CCN(C(=O)OC)CC2=O)c2ccc(OCc3ccccn3)nc21 [Example 23, methyl 4-[1-ethyl-6-(pyridin-2-ylmethoxy)-1H-pyrrolo[2,3-b]pyridin-3-yl]-3-oxopiperazine-1-carboxylate] | 21628.2 ** cm | 31070.8 *** cm | – | – | –
7 | COC(=O)[C@H]1[C@H]2C[C@@H]3c4[nH]c5cc(OC)ccc5c4CCN3C[C@H]2C[C@@H](OC(=O)c2cc(OC)c(OC)c(OC)c2)[C@@H]1OC [reserpine, Reserpine, reference compound] | – | – | – | – | mean distance moved (cm) in 120 min, reserpine alone ([3]; 18-24 hours after single dose of 1 mg/kg reserpine i.p., no test compound, 1 mg/kg): 4118.6 cm and 7331.1 cm and 4597.2 cm and 6150 cm
